The values that follow come from PubChem BioAssay AID624367 (Broad Institute, 2012).

Activity calls are given as the source filed them. No rule for the calls is given here.

The nature of one test: lymphoblastoid cell cytotoxicity, dose response, cytotoxicity control, plate reader, dry powder, set 2 (AID 624367). Particulars: Lymphoblastoid cell line (LCL) cytotoxicity, plate reader; at 30 µM (top of the series).
In the case of `Cc1noc(C)c1S(=O)(=O)Nc1ccc2c(c1)C(=O)N([C@@H](C)CO)C[C@@H](C)[C@H](CN(C)Cc1ccc(C(F)(F)F)cc1)OCCCC[C@H](C)O2`, the activity change, negative = cytotoxicity was -0.638% (inactive).
On the same count and under the same terms, with `Cc1noc(C)c1S(=O)(=O)Nc1ccc2c(c1)C(=O)N([C@@H](C)CO)C[C@H](C)[C@H](CN(C)Cc1ccc(C(F)(F)F)cc1)OCCCC[C@@H](C)O2` the figure was -7.54% (inactive).
Same read-out and setting: with `C[C@H](NC(=O)C[C@@H]1C=C[C@H](NC(=O)Cc2ccccn2)[C@H](CO)O1)c1ccccc1` the figure was 6.34% (inactive).

Still in this test, the particulars now being: Lymphoblastoid cell line (LCL) cytotoxicity, plate reader; at 35 µM (top of the series).
In the case of `Cc1noc(C)c1S(=O)(=O)Nc1ccc2c(c1)C(=O)N([C@@H](C)CO)C[C@H](C)[C@H](CN(C)Cc1ccc(C(F)(F)F)cc1)OCCCC[C@H](C)O2`, the activity change, negative = cytotoxicity is -5.45% (inactive).
Still for that read-out and setting: with `C[C@@H]1CN([C@@H](C)CO)S(=O)(=O)c2ccc(C#Cc3ccncc3)cc2O[C@H]1CN(C)C(=O)Nc1ccc2c(c1)OCO2` the figure was -1.7% (inactive).
Still for that read-out and setting: the figure for `COc1ccccc1C#Cc1ccc2c(c1)O[C@H](CN(C)Cc1cccnc1)[C@H](C)CN([C@@H](C)CO)S2(=O)=O` is -1.62% (inactive); for `O=C(C[C@@H]1CC[C@@H]2[C@H](COC[C@@H](O)CN2Cc2ccc(Oc3ccccc3)cc2)O1)N1CCc2ccccc2C1` it is -13.2% (inactive).
The same measure, in the same setting: the figure for `O=C(C[C@@H]1CC[C@H]2[C@@H](COC[C@H](O)CN2Cc2ccc(Oc3ccccc3)cc2)O1)N1CCc2ccccc2C1` is -13.4% (inactive).
Turning to `C[C@@H](NC(=O)C[C@@H]1C=C[C@@H](NC(=O)Cc2ccccn2)[C@H](CO)O1)c1ccccc1`, the activity change, negative = cytotoxicity is 0.18% (inactive).
As to `O=C(Cc1ccccn1)NCC[C@@H]1CC[C@H](NC(=O)Nc2ccc(Cl)cc2)[C@H](CO)O1`, the activity change, negative = cytotoxicity is 7.74% (inactive).
Still for that read-out and setting: the figure for `Cc1noc(C)c1S(=O)(=O)Nc1ccc2c(c1)C(=O)N([C@H](C)CO)C[C@@H](C)[C@H](CN(C)Cc1ccc(C(F)(F)F)cc1)OCCCC[C@@H](C)O2` is -9.24% (inactive); for `CO[C@@H]1CN(C)C(=O)c2ccc(NC(C)=O)cc2OC[C@@H](C)N(Cc2ccccc2F)C[C@H]1C` it is 2.23% (inactive).
On the same count and under the same terms, the figure for `C[C@@H]1CN([C@@H](C)CO)S(=O)(=O)c2ccc(C#C[C@@H](C)O)cc2O[C@H]1CN(C)Cc1ccc(-c2ccccc2)cc1` is -1.38% (inactive); for `C[C@@H](NC(=O)C[C@H]1C=C[C@H](NC(=O)Cc2ccccn2)[C@@H](CO)O1)c1ccccc1` it is -5.21% (inactive); for `CO[C@H](CN(C)S(=O)(=O)c1cccc(Cl)c1)[C@@H](C)CN([C@H](C)CO)S(=O)(=O)c1ccc(Cl)cc1` it is -9.42% (inactive).
On the same count and under the same terms, with `O=C(Cc1ccccn1)NCC[C@H]1CC[C@H](NC(=O)Nc2ccc(Cl)cc2)[C@H](CO)O1` the figure was 7.55% (inactive); with `Cc1noc(C)c1S(=O)(=O)Nc1ccc2c(c1)C(=O)N([C@H](C)CO)C[C@H](C)[C@H](CN(C)Cc1ccc(C(F)(F)F)cc1)OCCCC[C@H](C)O2`, -5.76% (inactive).
Turning to `COc1cccc(C#Cc2ccc([C@@H]3[C@@H](C#N)N(C(=O)c4ccccn4)[C@@H]3CO)cc2)c1`, the activity change, negative = cytotoxicity is 7.55% (inactive).
The same measure, in the same setting: with `C[C@@H]1CN([C@H](C)CO)S(=O)(=O)c2ccc(/C=C/c3ccccc3)cc2O[C@H]1CN(C)C(=O)NC1CCCCC1` the figure was -0.754% (inactive); with `COc1cccc(S(=O)(=O)N(C)C[C@H]2Oc3cc(C4=CCCCC4)ccc3S(=O)(=O)N([C@H](C)CO)C[C@H]2C)c1`, -4.62% (inactive); with `Cc1noc(C)c1S(=O)(=O)Nc1ccc2c(c1)C(=O)N([C@H](C)CO)C[C@@H](C)[C@@H](CN(C)Cc1ccc(C(F)(F)F)cc1)OCCCC[C@@H](C)O2`, 1.01% (inactive).
On the same count and under the same terms, with `O=C(C[C@@H]1CC[C@@H]2[C@H](COC[C@@H](O)CN2Cc2ccc3c(c2)OCO3)O1)Nc1ccc(-c2ccccc2)cc1` the figure was -8.48% (inactive); with `COc1cccc(S(=O)(=O)N(C)C[C@@H]2Oc3cc(C4=CCCCC4)ccc3S(=O)(=O)N([C@@H](C)CO)C[C@H]2C)c1`, 0.436% (inactive); with `C[C@@H]1CN([C@@H](C)CO)C(=O)c2c(c3ccccc3n2C)-c2ccccc2CO[C@@H]1CN(C)C(=O)Nc1ccc(F)cc1`, -5.86% (inactive).
The same measure, in the same setting: the figure for `COc1ccccc1C#Cc1ccc([C@H]2[C@H](C#N)N(C(=O)C3CC3)[C@H]2CO)cc1` is -4.85% (inactive); for `Cc1noc(C)c1S(=O)(=O)Nc1ccc2c(c1)C(=O)N([C@H](C)CO)C[C@H](C)[C@@H](CN(C)Cc1ccc(C(F)(F)F)cc1)OCCCC[C@H](C)O2` it is -4.42% (inactive).
In the case of `O=C(C[C@@H]1C[C@@H]2c3cc(NS(=O)(=O)c4ccc(F)cc4)ccc3O[C@@H]2[C@H](CO)O1)NC1CCCCC1`, the activity change, negative = cytotoxicity was 0.429% (inactive).
On the same count and under the same terms, with `Cc1ccc(S(=O)(=O)N(C)C[C@H]2Oc3cc(C#Cc4ccncc4)ccc3S(=O)(=O)N([C@@H](C)CO)C[C@H]2C)cc1` the figure was -6.9% (inactive); with `CN1C(=O)c2cc(NC(=O)c3ccc(C(F)(F)F)cc3)ccc2OC[C@@H]2O[C@@H](CC(=O)NC3Cc4ccccc4C3)CC[C@H]21`, -7.43% (inactive).
On the same count and under the same terms, the figure for `O=C(Cc1ccccn1)NCC[C@@H]1CC[C@@H](NC(=O)Nc2ccc(Cl)cc2)[C@@H](CO)O1` is 1.2% (inactive); for `CC(C)NC(=O)N1Cc2cc(C(=O)NC3Cc4ccccc4C3)nc(-c3cccc(-c4cccnc4)c3)c2[C@@H]1CCO` it is 0.066% (inactive).
Consider `COc1ccc(S(=O)(=O)N(C)C[C@@H]2Oc3ncc(/C=C/c4ccccc4)cc3C(=O)N([C@@H](C)CO)C[C@H]2C)cc1`, for which the activity change, negative = cytotoxicity is -4% (inactive).
On the same count and under the same terms, with `Cc1noc(C)c1S(=O)(=O)Nc1ccc2c(c1)C(=O)N([C@H](C)CO)C[C@H](C)[C@@H](CN(C)Cc1ccc(C(F)(F)F)cc1)OCCCC[C@@H](C)O2` the figure was -2.6% (inactive); with `C[C@H](NC(=O)C[C@H]1C=C[C@H](NC(=O)Cc2ccccn2)[C@H](CO)O1)c1ccccc1`, 10.5% (inactive); with `C[C@H](CO)N1C[C@H](C)[C@H](CN(C)Cc2ccc(C(F)(F)F)cc2)Oc2ccc(NC(=O)Cc3ccccc3)cc2CC1=O`, 3.51% (inactive).
For `CCCNC(=O)c1cc2c(c(-c3cccc(-c4cccc(F)c4)c3)n1)[C@H](CCO)N([S@@](=O)C(C)(C)C)C2`, the activity change, negative = cytotoxicity is -1.43% (inactive).
The same measure, in the same setting: with `CCC(=O)N1Cc2cc(C(=O)Nc3nccs3)nc(-c3cccc(-c4ccccc4OC)c3)c2[C@H]1CCO` the figure was -2.48% (inactive); with `N#C[C@H]1[C@@H](c2ccc(-c3cccnc3)cc2)[C@@H](CO)N1C(=O)Nc1ccc(F)cc1`, 3.54% (inactive); with `COc1cccc(-c2cccc(-c3nc(C(=O)NCC(F)(F)F)cc4c3[C@H](CCO)N([S@@](=O)C(C)(C)C)C4)c2)c1`, -12.4% (inactive).
Consider `C[C@@H]1CN([C@H](C)CO)C(=O)c2c(c3ccccc3n2C)-c2ccccc2CO[C@H]1CN(C)C(=O)Nc1ccc(F)cc1`, for which the activity change, negative = cytotoxicity is 1.26% (inactive).
Same read-out and setting: with `C[C@@H](NC(=O)C[C@H]1C[C@@H]2c3cc(NC(=O)c4cccnc4)ccc3O[C@@H]2[C@@H](CO)O1)c1ccccc1` the figure was -0.579% (inactive); with `Cc1ccc(S(=O)(=O)N(C)C[C@H]2Oc3cc(C#Cc4ccncc4)ccc3S(=O)(=O)N([C@@H](C)CO)C[C@@H]2C)cc1`, 8.38% (inactive).
Still for that read-out and setting: the figure for `COc1ccccc1C#Cc1cnc2c(c1)C(=O)N([C@H](C)CO)C[C@H](C)[C@@H](CN(C)C(=O)c1ccc3c(c1)OCO3)O2` is 8.25% (inactive); for `N#C[C@H]1N[C@H](CO)[C@H]1c1ccc(C#Cc2ccccc2F)cc1` it is -8.35% (inactive).
With `C[C@@H](NC(=O)C[C@H]1C=C[C@H](NC(=O)Cc2ccccn2)[C@H](CO)O1)c1ccccc1`, the activity change, negative = cytotoxicity is 1.04% (inactive).
Still for that read-out and setting: with `Cc1noc(C)c1S(=O)(=O)Nc1ccc2c(c1)C(=O)N([C@@H](C)CO)C[C@H](C)[C@@H](CN(C)Cc1ccc(C(F)(F)F)cc1)OCCCC[C@H](C)O2` the figure was -1.76% (inactive).
With `C[C@H]1CN([C@@H](C)CO)C(=O)c2cc(C#Cc3ccccc3F)cnc2O[C@@H]1CN(C)C(=O)C1CCCCC1`, the activity change, negative = cytotoxicity was 8.49% (inactive).
The same measure, in the same setting: the figure for `O=C(Cc1ccccn1)NCC[C@@H]1CC[C@@H](NC(=O)Nc2ccc(Cl)cc2)[C@H](CO)O1` is -2.4% (inactive).
Still for that read-out and setting: the figure for `Cc1noc(C)c1S(=O)(=O)Nc1ccc2c(c1)C(=O)N([C@H](C)CO)C[C@H](C)[C@H](CN(C)Cc1ccc(C(F)(F)F)cc1)OCCCC[C@@H](C)O2` is -2.12% (inactive).
With `O=C(Cc1ccccn1)NCC[C@H]1CC[C@@H](NC(=O)Nc2ccc(Cl)cc2)[C@H](CO)O1`, the activity change, negative = cytotoxicity is -1.08% (inactive).
Consider `COc1ccc(S(=O)(=O)N(C)C[C@H]2Oc3ncc(/C=C/c4ccccc4)cc3C(=O)N([C@H](C)CO)C[C@@H]2C)cc1`, for which the activity change, negative = cytotoxicity was 7.14% (inactive).
The same measure, in the same setting: with `C[C@@H]1CN([C@@H](C)CO)C(=O)Cc2cc(NC(=O)Cc3ccccc3)ccc2O[C@@H]1CN(C)Cc1ccc(C(F)(F)F)cc1` the figure was -0.78% (inactive); with `C[C@H](NC(=O)C[C@@H]1C=C[C@@H](NC(=O)Cc2ccccn2)[C@H](CO)O1)c1ccccc1`, 3.26% (inactive); with `COc1ccccc1CNC(=O)C[C@H]1C[C@@H]2c3cc(NC(=O)CN(C)C)ccc3O[C@@H]2[C@@H](CO)O1`, 2.15% (inactive).
